The values that follow come from EP4609848A1 (I-D Actives, S.L., priority 2024, dated 2025).

The nature of the data set: Phase solubility study with cyclodextrins (β-CDs, HP-β-CDs) in galega water, spectrophotometric titration. It counts as physicochemical. The protocol:
The inventors performed solubility studies in an aqueous media in the absence and presence of solvents and in the presence of increasing concentrations of different types of CDs (β-CDs and HP-β-CDs).
According to the traditional interpretation, this study was carried out using the solubility method.
On the other hand, further sea buckthorn oil solubilization tests were performed with galega water solutions containing 80 mM HP-β-cyclodextrin and another solution with 10 mM β-cyclodextrin.

≈ marks a conversion by molar mass, not a printed value.

Take `Oc1ccc(C=Cc2cc(O)cc(O)c2)cc1` [Resveratrol, resveratrol]: under “25 °C, water, thermodynamic from solid”, the thermodynamic solubility at 60 min was found to be 40 µg/mL (≈ 175 µM). The solubility of resveratrol (in absence of CDs, galega water) turned out to be 25 µg/mL.

In general, solubility (thermodynamic) refers to the concentration in solution at equilibrium with solid.
